Laboratory results: patent EP4057003A1, “SELECTIVE SULFATE ANION DETECTION USING GUANYLATED FLUOROPHORES” (Universidad de Castilla la Mancha, priority 2021, dated 2022)

Tests used:
[1] = pH titration of aqueous solution, UV-Vis absorption and steady-state fluorescence (pH dependence, pKa); format: physicochemical
Experimental: For experiments in water, stock solutions (1 mM) of guanylated fluorophore (A) in ethanol were used. All aqueous solutions were prepared by diluting the stock solution in Milli-Q water to the desired concentration and filtered with 0.22 µm filters before use. For the pH titration experiments, aqueous solutions of guanylated fluorophore (A) (10 µM) were titrated by the successive addition of small volumes (in the order of microliters) of HCI and NaOH solutions of different concentrations (0.01-10 M) to an initial volume of 25 mL to minimize changes in the sample volume. UV-Vis absorption, SSF spectra were recorded.
UV-Vis absorption spectra of guanylated fluorophore (A) were recorded at room temperature using a Cary 100 (Varian) spectrophotometer using a slit width of 0.4 nm and a scan rate of 600 nm/min.
(§1) Steady-state fluorescence (SSF) spectra of the samples were recorded employing an FLS920 (Edinburgh Instruments) spectrofluorometer equipped with a MCP-PMT (microchannel plate-photomultiplier tube) detector (R3809 model) and a TCSPC (time-correlated single photon counting) data acquisition card (TCC900 model). A TLC 50 temperature-controlled cuvette holder (Quantum Northwest) was employed for the measurements (temperature was controlled at 296 K, which corresponds to 22.85 °C). A Xe lamp of 450 W was used as the light source for SSF spectra. […]

[2] = Association constant from fluorescence titration data, Scatchard plot method; format: binding
Experimental: (§2) For ion interaction experiments, an aqueous solution of guanylated fluorophore (A) (10 µM) was titrated with different salt solutions (CaCl2, KCI, NaCl, NaCH3COO, KSCN, Na2CO3, Na2SO3, SDS, Na2HPO4, Na3PO4, AgNO3, MgSO4, CuSO4, and NiSO4). Different concentrations of ions were tested from 0 to 100 µM and steady-state fluorescence (SSF) spectra were acquired. All measurements were performed using 10 mm quartz cuvette (Hellma Analytics).
Chem. Commun. (Cambridge, United Kingdom) 2003, 2 (6), 792-793. https://doi.org/10.1039/b300098b)by the following equation (i): [SO4^(2−)] = (1)/(nKa)(1)/([F]0^(n−1))(1−α)/(α^n) [formula] where; α is defined as the ratio between concentration of free fluorophore (e.g. [F] and initial [F]0 fluorophore concentration, e.g. for the guanylated fluorophore (A), and can be determined from the fluorescence difference at any titration stage; n is the stoichiometry to the studied complex Fn(SO4^2-)m.
The data of figure 5d of example 3 was fitted to equation (i) as shown in: • Figure 7a for the 1:1 complex of guanylated fluorophore (A) and sulfate anion (i.e., (A)(SO4^2-), complex A) • Figure 7b for the a 2:1 complex of guanylated fluorophore (A) and sulfate anion (i.e., (A)2(SO4^2-), complex B)

[3] = Ion recognition: fluorescence change on addition of salts in water
Experimental: […] Different concentrations of ions were tested from 0 to 100 µM and steady-state fluorescence (SSF) spectra were acquired. All measurements were performed using 10 mm quartz cuvette (Hellma Analytics).
as §1
Although the fluorescence intensity of guanylated fluorophore (A) was the same for most of the ions, the presence of sulfate anions (added to a concentration of 100 µM) caused -2-fold fluorescence quenching in guanylated fluorophore (A) (at a concentration of 10 µM) (Figure 5a). […] More importantly, for the same titration a gradual fluorescence decrease without any shift in the emission spectra was observed (see Figure 5c).
Figure 6b collects the fluorescence changes (%) of guanylated fluorophore (A) when successive quantities of 100 µM of anions are added over 5µM solution of A in water.

[4] = Anion selectivity, fluorescence decrease on addition of anion in water (Figure 6a); details: 100 µM anion
Experimental: as §2
The selectivity of guanylated fluorophore (A) was tested with different anions (Figure 6a). […] It is important to emphasize that the selectivity of guanylated fluorophore (A) was tested in water, where the presence of cations like Ca^2+, Ni^2+, K^+, Na^+ or Mg^2+ or anions like HPO4^2- NO^3- and Cl^- normally presented in this media will not affect the final recognition values. To evaluate the selectivity to sulfate anions, additional experiments were conducted on water complex samples containing high concentrations of such ions as interfering.

pKa ([1]; aqueous solution (Milli-Q water), water, from absorption spectra at different pH (A / AH^+ equilibrium)): 11.1 | intensity of the fluorescence and the wavelength of emission ([1]; pH in the range of 5-12, λex 272 nm): only mildly affected
SMILES: CC(C)NC(=Nc1ccc2c(c1)Cc1ccccc1-2)NC(C)C [guanylated fluorophore (A), 2-(9H-fluoren-2-yl)-1,3-diisopropylguanidine]
Ka ([2]; 1:1 complex (A)(SO4^2-), complex A): 1.26x10^5 | Ka ([2]; 2:1 complex (A)2(SO4^2-), complex B): 1.55x10^10 | fluorescence changes (%) / emission intensity ([3]; successive additions of 100 µM of anions to 5 µM solution in water (Figure 6b)): exclusively decreases when sulfate anions are added | fluorescence quenching ([3]; sulfate anions 100 µM, fluorophore 10 µM, water): -2 fold | sensitivity ([4]; HPO4^2-): no sensitivity was found | sensitivity ([4]; PO4^3-): no sensitivity was found | sensitivity ([4]; SO3^2-): sensitivity was not observed | sensitivity ([4]; dodecyl sulfate (SDS)): sensitivity was not observed
